Test results taken from US20260055102A1 (Redx Pharma Limited, priority 2022, published 2026).

Experiments:
[1] = target: Recombinant human DDR2 (aa427-855 containing a GST tag) (Homo sapiens (Human), UniProt Q16832); experiment: LanthaScreen Eu Kinase Binding Assay DDR2; settings: Kinase Tracer 178 10 nM, at least two independent replicates; for IC50: read-out: DDR2 pIC50 (converted)
Procedure: (§1) DDR1 and DDR2 Biochemical Assay Method The capacity of compounds to bind to DDR1 and DDR2 was quantified using a LanthaScreen Eu Kinase Binding Assay. Recombinant human DDR1 (2.5 nM; aa440-876 containing a GST tag) and DDR2 (1.75 nM; aa427-855 containing a GST tag) were diluted in assay buffer (50 mM HEPES pH7.3, 10 mM MgCl2, 1 mM EGTA and 0.01% Tween) with various concentrations of compound in a 384-well plate and a volume of 5 uL. After a 30-minute incubation at room temperature, 2.5 uL of Eu-anti GST antibody (diluted to 1 nM in assay buffer) plus Kinase Tracer 178 (diluted in assay buffer to 5 nM for DDR1 and 10 nM for DDR2) were added to the plate. Following 60-minute incubation at room temperature, time-resolved fluorescence was measured on a BMG Labtech PHERAstar plate reader. DMSO (1%) and reference compound (1 μM) were used to generate the Max and Min assay signals, respectively. Data was analysed using a four-parameter logistic model to calculate IC50 values, with at least two independent replicates were performed for each compound.

[2] = target: Recombinant human DDR1 (aa440-876 containing a GST tag) (Homo sapiens (Human), UniProt Q08345); experiment: LanthaScreen Eu Kinase Binding Assay DDR1; settings: Kinase Tracer 178 5 nM, at least two independent replicates; for IC50: read-out: DDR1 pIC50 (converted)
Procedure: as §1

Chain of Recombinant human DDR1 (aa440-876 containing a GST tag) (Q08345 other isoform, or with tags, fused parts or gaps): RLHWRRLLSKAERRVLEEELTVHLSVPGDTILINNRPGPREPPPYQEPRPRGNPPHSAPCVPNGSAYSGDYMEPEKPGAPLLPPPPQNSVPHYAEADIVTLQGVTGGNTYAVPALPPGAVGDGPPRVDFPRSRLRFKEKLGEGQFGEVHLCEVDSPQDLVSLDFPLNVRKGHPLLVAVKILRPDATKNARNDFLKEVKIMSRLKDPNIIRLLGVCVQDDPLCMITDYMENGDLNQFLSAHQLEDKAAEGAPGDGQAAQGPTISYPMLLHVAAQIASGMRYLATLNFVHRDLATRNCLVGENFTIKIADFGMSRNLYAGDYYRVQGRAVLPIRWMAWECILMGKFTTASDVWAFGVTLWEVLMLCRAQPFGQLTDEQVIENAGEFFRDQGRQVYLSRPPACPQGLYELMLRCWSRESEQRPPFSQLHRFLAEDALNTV
Chain of Recombinant human DDR2 (aa427-855 containing a GST tag) (Q16832 427-855): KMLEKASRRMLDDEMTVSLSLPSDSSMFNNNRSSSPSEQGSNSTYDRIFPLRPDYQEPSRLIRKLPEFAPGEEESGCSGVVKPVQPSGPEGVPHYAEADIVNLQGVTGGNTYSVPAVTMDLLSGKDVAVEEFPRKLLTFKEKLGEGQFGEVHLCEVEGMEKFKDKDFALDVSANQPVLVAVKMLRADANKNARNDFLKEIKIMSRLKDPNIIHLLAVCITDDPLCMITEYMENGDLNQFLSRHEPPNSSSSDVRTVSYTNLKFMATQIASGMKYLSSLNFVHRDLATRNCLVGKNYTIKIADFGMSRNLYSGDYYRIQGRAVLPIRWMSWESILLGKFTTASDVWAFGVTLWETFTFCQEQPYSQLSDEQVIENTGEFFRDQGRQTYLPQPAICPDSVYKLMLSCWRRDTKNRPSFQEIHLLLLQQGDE

SMILES	IC50 [1]	IC50 [2]	DDR2 pIC50 [1]	DDR1 pIC50 [2]
Cc1cccc2c1n(-c1ccc(-c3cncc4c3cnn4C)nc1)c(=O)n2CC(=O)N1CCOC(C(F)(F)F)C1 (stereo in doubt) [Example 55, 4-methyl-3-[6-(1-methylpyrazolo[3,4-c]pyridin-4-yl)-3-pyridyl]-1-[2-oxo-2-[(2S)-2-trifluoromethyl)morpholin-4-yl]ethyl]benzimidazol-2-one]	100 to 1000 nM	< 10 nM		
Cn1ncc2c(-c3ccc(-n4c(=O)n(CC(=O)NCC(F)(F)F)c5ccccc54)cc3)cncc21 [Example 1, 2-[3-[4-(1-methylpyrazolo[3,4-c]pyridin-4-yl)phenyl]-2-oxobenzimidazol-1-yl]-N-(2,2,2-trifluoroethyl)acetamide]		10 to 100 nM	D (pIC50≤6)	
Cn1ncc2c(-c3ccc(-n4c(=O)n(CC(=O)N5CCC[C@H]5C(F)(F)F)c5ccccc54)cc3)cncc21 [Example 2, 1-[4-(1-methylpyrazolo[3,4-c]pyridin-4-yl)phenyl]-3-[2-oxo-2-[(2S)-2-(trifluoromethyl)pyrrolidin-1-yl]ethyl]benzimidazol-2-one]	100 to 1000 nM			A (pIC50>8)
Cc1cccc2c1n(-c1ccc(-c3cncc4c3cnn4C)cc1)c(=O)n2CC(=O)N1CCC[C@H]1C(F)(F)F [Example 8, 4-methyl-3-[4-(1-methylpyrazolo[3,4-c]pyridin-4-yl)phenyl]-1-[2-oxo-2-[(2S)-2-(trifluoromethyl)pyrrolidin-1-yl]ethyl]benzimidazol-2-one]			A (pIC50>8)	A (pIC50>8)
Cn1ncc2c(-c3ccc(-n4c(=O)n(CC(=O)NCC(F)(F)F)c5cccc(Cl)c54)cc3)cncc21 [Example 11, 2-[4-chloro-3-[4-(1-methylpyrazolo[3,4-c]pyridin-4-yl)phenyl]-2-oxobenzimidazol-1-yl]-N-(2,2,2-trifluoroethyl)acetamide]	10 to 100 nM			A (pIC50>8)
Cc1cc(-c2cncc3c2cnn3C)ccc1-n1c(=O)n(CC(=O)NCC(F)(F)F)c2ccccc21 [Example 13, 2-[3-[2-methyl-4-(1-methylpyrazolo[3,4-c]pyridin-4-yl)phenyl]-2-oxobenzimidazol-1-yl]-N-(2,2,2-trifluoroethyl)acetamide]		10 to 100 nM	D (pIC50≤6)	
Cc1cc(-c2cncc3[nH]ncc23)ccc1-n1c(=O)n(CC(=O)NCC(F)(F)F)c2ccccc21 [Example 14, 2-[3-[2-methyl-4-(1H-pyrazolo[3,4-c]pyridin-4-yl)phenyl]-2-oxobenzimidazol-1-yl]-N-(2,2,2-trifluoroethyl)acetamide]	100 to 1000 nM			A (pIC50>8)
Cn1ncc2c(-c3ccc(-n4c(=O)n(CC(=O)NCC(F)(F)F)c5ccccc54)c(F)c3)cncc21 [Example 15, 2-[3-[2-fluoro-4-(1-methylpyrazolo[3,4-c]pyridin-4-yl)phenyl]-2-oxo-benzimidazol-1-yl]-N-(2,2,2-trifluoroethyl)acetamide]		100 to 1000 nM	D (pIC50≤6)	
CC(NC(=O)Cn1c(=O)n(-c2ccc(-c3cncc4c3cnn4C)cc2)c2ccccc21)C1CC1 (centres unmarked) [Example 19, N-(1-cyclopropylethyl)-2-[3-[4-(1-methylpyrazolo[3,4-c]pyridin-4-yl)phenyl]-2-oxobenzimidazol-1-yl]acetamide]		10 to 100 nM	D (pIC50≤6)	
Cn1ncc2c(-c3ccc(-n4c(=O)n(CC(=O)N5CCOCC5)c5ccccc54)cc3)cncc21 [Example 22, 1-[4-(1-methylpyrazolo[3,4-c]pyridin-4-yl)phenyl]-3-(2-morpholino-2-oxoethyl)benzimidazol-2-one]			D (pIC50≤6)	D (pIC50≤6)
Cc1cccc2c1n(-c1ccc(-c3cncc4c3cnn4C)cn1)c(=O)n2CC(=O)N1CCO[C@H](C(F)(F)F)C1 [Example 61, 4-methyl-3-[5-(1-methylpyrazolo[3,4-c]pyridin-4-yl)-2-pyridyl]-1-[2-oxo-2-[(2S)-2-(trifluoromethyl)morpholin-4-yl]ethyl]benzimidazol-2-one]	100 to 1000 nM			

The remaining lines, values ahead:

IC50 [1]	IC50 [2]	DDR2 pIC50 [1]	DDR1 pIC50 [2]	SMILES
	10 to 100 nM	D (pIC50≤6)		Cn1ncc2c(-c3ccc(-n4c(=O)n(CC(=O)NCC(F)(F)F)c5ccccc54)cc3F)cncc21 [Example 4, 2-[3-[3-fluoro-4-(1-methylpyrazolo[3,4-c]pyridin-4-yl)phenyl]-2-oxobenzimidazol-1-yl]-N-(2,2,2-trifluoroethyl)acetamide]
		D (pIC50≤6)	D (pIC50≤6)	Cc1cc(-n2c(=O)n(CC(=O)NCC(F)(F)F)c3ccccc32)ccc1-c1cncc2c1cnn2C [Example 5, 2-[3-[3-methyl-4-(1-methylpyrazolo[3,4-c]pyridin-4-yl)phenyl]-2-oxobenzimidazol-1-yl]-N-(2,2,2-trifluoroethyl)acetamide]
10 to 100 nM			A (pIC50>8)	Cc1cccc2c1n(-c1ccc(-c3cncc4c3cnn4C)cc1)c(=O)n2CC(=O)NCC(F)(F)F [Example 6, 2-[4-methyl-3-[4-(1-methylpyrazolo[3,4-c]pyridin-4-yl)phenyl]-2-oxobenzimidazol-1-yl]-N-(2,2,2-trifluoroethyl)acetamide]
		A (pIC50>8)	A (pIC50>8)	Cc1cccc2c1n(-c1ccc(-c3cncc4c3cnn4C)cc1)c(=O)n2CC(=O)N[C@@H](C)C(F)(F)F [Example 7, 2-[4-methyl-3-[4-(1-methylpyrazolo[3,4-c]pyridin-4-yl)phenyl]-2-oxobenzimidazol-1-yl]-N-[(1S)-2,2,2-trifluoro-1-methylethyl]acetamide]
10 to 100 nM			A (pIC50>8)	Cc1cccc2c1n(-c1ccc(-c3cncc4c3cnn4C)cc1)c(=O)n2CC(=O)N1CCOC(C(F)(F)F)C1 (centres unmarked) [Example 9, 4-methyl-3-[4-(1-methylpyrazolo[3,4-c]pyridin-4-yl)phenyl]-1-[2-oxo-2-[2-(trifluoromethyl)morpholin-4-yl]ethyl]benzimidazol-2-one]
10 to 100 nM			A (pIC50>8)	Cc1cccc2c1n(-c1ccc(-c3cncc4c3cnn4C)cc1)c(=O)n2CC(=O)N1CCO[C@@H](C(F)(F)F)C1 [Example 10, 4-methyl-3-[4-(1-methypyrazolo[3,4-c]pyridin-4-yl)phenyl]-1-[2-oxo-2-[(2R)-2-(trifluoromethyl)morpholin-4-yl]ethyl]benzimidazol-2-one]
	10 to 100 nM	D (pIC50≤6)		COc1cccc2c1n(-c1ccc(-c3cncc4c3cnn4C)cc1)c(=O)n2CC(=O)NCC(F)(F)F [Example 12, 2-[4-methoxy-3-[4-(1-methylpyrazolo[3,4-c]pyridin-4-yl)phenyl]-2-oxobenzimidazol-1-yl]-N-(2,2,2-trifluoroethyl)acetamide]
100 to 1000 nM			A (pIC50>8)	Cc1cc(-c2cncc3c2cnn3C)ccc1-n1c(=O)n(CC(=O)NCC(F)(F)F)c2cccc(C)c21 [Example 16, 2-[4-methyl-3-[2-methyl-4-(1-methylpyrazolo[3,4-c]pyridin-4-yl)phenyl]-2-oxo-benzimidazol-1-yl]-N-(2,2,2-trifluoroethyl)acetamide]
100 to 1000 nM	10 to 100 nM			CC(NC(=O)Cn1c(=O)n(-c2ccc(-c3cncc4c3cnn4C)cc2)c2ccccc21)C(F)(F)F (centres unmarked) [Example 17, 2-[3-[4-(1-methylpyrazolo[3,4-c]pyridin-4-yl)phenyl]-2-oxobenzimidazol-1-yl]-N-(2,2,2-trifluoro-1-methylethyl)acetamide]
10 to 100 nM			A (pIC50>8)	Cn1ncc2c(-c3ccc(-n4c(=O)n(CC(=O)N5CCCC5C(F)(F)F)c5ccccc54)cc3)cncc21 (centres unmarked) [Example 18, 1-[4-(1-methylpyrazolo[3,4-c]pyridin-4-yl)phenyl]-3-[2-oxo-2-[2-(trifluoromethyl)pyrolidin-1-yl]ethyl]benzimidazol-2-one]
100 to 1000 nM			A (pIC50>8)	Cn1ncc2c(-c3ccc(-n4c(=O)n(CC(=O)N5CCCCC5C(F)(F)F)c5ccccc54)cc3)cncc21 (centres unmarked) [Example 20, 1-[4-(1-methylpyrazolo[3,4-c]pyridin-4-yl)phenyl]-3-[2-oxo-2-[2-(trifluoromethyl)-1-piperidyl]ethyl]benzimidazol-2-one]
		D (pIC50≤6)	D (pIC50≤6)	CN1CCN(C(=O)Cn2c(=O)n(-c3ccc(-c4cncc5c4cnn5C)cc3)c3ccccc32)CC1 [Example 21, 1-[2-(4-methylpiperazin-1-yl)-2-oxoethyl]-3-[4-(1-methylpyrazolo[3,4-c]pyridin-4-yl)phenyl]benzimidazol-2-one]
	10 to 100 nM			Cc1cccc2c1n(-c1ccc(-c3cncc4c3cnn4C)cc1)c(=O)n2CC(=O)N1CCC[C@H]1CF [Example 26, 4-methyl-3-[4-(1-methylpyrazolo[3,4-c]pyridin-4-yl)phenyl]-1-[2-oxo-2-[(2S)-2-(fluoromethyl)pyrrolidin-1-yl]ethyl]benzimidazol-2-one]
	10 to 100 nM			CN(C)c1cccc2c1n(-c1ccc(-c3cncc4c3cnn4C)cc1)c(=O)n2CC(=O)NCC(F)(F)F [Example 80, 2-[4-(dimethylamino)-3-[4-(1-methylpyrazolo[3,4-c]pyridin-4-yl)phenyl]-2-oxo-benzimidazol-1-yl]-N-(2,2,2-trifluoroethyl)acetamide]
